From patent US7018995B2, “Carbonate and carbamate modified forms of glucocorticoids” (Sepracor Inc., priority 2002, dated 2006)

How the values were obtained:
[1] = test system: WI-38 human lung fibroblast line (IL-1β-stimulated PGE2); test: Inhibition of IL-1β-stimulated PGE2 release in WI-38 cells; assay type: cell-based; settings: WI-38 cells stimulated with recombinant human IL-1β, 24 hours incubation, PGE2 by EIA; read-out: IC50 (level of PGE2 in supernatants)
Protocol: Compounds as described above were tested in the following assay for biological activity. The WI-38 human lung fibroblast line was obtained from the ATCC (catalog number 75-CCL) and maintained in Basal Medium Eagle with Earle's salts (GibcoBRL product number 21010-046) supplemented with 2 mM glutamine and 10% fetal calf serum at 37° C. in a 7% CO2 (balance air), humidified atmosphere. One week before experiments were done, the WI-38 cells were seeded into 48-well tissue culture dishes and maintained in media containing 10% fetal calf serum. The cells were used when confluent. The day before the experiment the cells were fed fresh media containing 10% fetal calf serum (0.25 mL per well). On the day of the experiment the media was removed from the cells and 0.25 mL of media containing 5% fetal calf serum added.
To determine the IC50 values for the compounds, 1 to 1000 dilutions were made of the 5 mM stock solutions in DMSO to give 5 uM solutions. These solutions were serially diluted 1:2 in DMSO to give a series of 12 dilutions ranging from 5 uM to 2.4 nM. 0.0025 mL aliquots of the 12 dilutions were added to wells of the WI-38 cells to give final compound concentrations ranging from 50 nM to 0.024 nM. The cells were stimulated by addition of 0.001 mL of 0.025 ug/mL recombinant human Interleukin-1β (IL-1β-Calbiochem catalog number 407615) in 0.1% bovine serum albumin in phosphate buffered saline. The cells were incubated for 24 hours and the supernatants harvested. The level of PGE2 in the supernatants was assayed using a commercial Enzyme Immuno Assay (EIA) kit (Cayman Chemical catalog number 514010) after diluting 1:10 in EIA buffer according to the manufacturer's directions. The data from these experiments was fit to a 4 parameter logistic function using the IC50 routine in the Grafit 4 program (Erithecus software).

[2] = test system: rat paw edema; test: Carrageenan rat paw edema model; assay type: in vivo; settings: for maximum activity at 24 hours / onset of action: rat paw edema; for reduction of swelling (percent inhibition of edema volume vs vehicle): injected into paw
Protocol: The compounds of the invention were also tested in vivo in a rat paw edema model [Hirschelmann, R. and Bekemeier, H., Int J Tissue React 6, 471-475 (1984)], which persons of skill in the art accept as predictive of efficacy in treating asthma and rhinitis in humans.
Rat Paw Edema Protocol: Male Sprague Dawley rats Rj: SD (IOPS Han) (CEJ, France) weighing between 140 and 160 grams were used in the studies. Animals were housed in a temperature (19.5-24.5° C.), relative humidity (40-70%) and 12-hour light/dark cycle (light 6:00 a.m. to 6:00 p.m.)-controlled room, with ad libitum access to filtered tap-water and standard pelleted laboratory chow (U.A.R., France) throughout the studies. Carrageenan lambda type IV (Sigma, France) was prepared as a 2% (w/v) solution in saline. Compounds to be tested were dissolved in dimethylsulfoxide (DMSO) such that the indicated doses were in a final volume of 0.05 mL. Doses were expressed as mg/paw free active substance. From 17 to 19 hours before the studies the rats were fasted with free access to water. The paw volumes of the left hindpaws of the rats were measured using an electronic plethysmometer type 7140 (Ugo Basile-Italy) at time=0. Paw edema was then induced by injection of 0.05 mL of 2% carrageenan solution into the left hindpaws of the rats. Immediately after injection of the carrageenan, compounds in DMSO or vehicle alone were injected into the same paw in a volume of 0.05 mL in a blind and random fashion.
The paw volumes were measured at 1.5 hours, 3 hours, 4.5 hours and 24 hours after administration of the compounds. The edema volume of each rat at each time point was expressed as the change from the initial paw volume (time=0). A total of 5 rats were used for each compound dose and the average edema volume calculated for each dose. The anti-inflammatory effect in treated groups was expressed as the percent inhibition of edema volume compared to the vehicle-treated group at 1.5 hours, 3 hours, 4.5 hours and 24 hours.

[3] = at 24 hours, equimolar doses equivalent to 10 μg per paw of budesonide, FIG. 1

Row | Compound | IC50 [1] [nM] | maximum activity at 24 hours [2] [%] | further results
1 | CCCC1OC2CC3C4CCC5=CC(=O)C=CC5(C)C4C(O)CC3(C)C2(C(=O)COC(=O)OCC(C)C)O1 (stereo not shown) [Example 1, Budesonide isobutylcarbonate] | 0.12 |  | 
2 | CCCCCCCCCCOC(=O)OCC(=O)[C@@]12OC(CCC)O[C@@H]1C[C@H]1[C@@H]3CCC4=CC(=O)C=C[C@]4(C)[C@H]3[C@@H](O)C[C@@]12C (stereo partly shown) [Example 8, Budesonide decylcarbonate] |  |  | more efficacious than budesonide itself [2, 3]: 30%
3 | CCCC1OC2CC3C4CCC5=CC(=O)C=CC5(C)C4C(O)CC3(C)C2(C(=O)COC(=O)OCCCCCCCCCCCN(C)C)O1 (stereo not shown) [Example 15, Budesonide 11-dimethylaminoundecylcarbonate] |  | 73 | 
4 | CCCC1O[C@@H]2C[C@H]3[C@@H]4CCC5=CC(=O)C=C[C@]5(C)[C@H]4[C@@H](O)C[C@]3(C)[C@]2(C(=O)CO)O1 (stereo partly shown) [budesonide, reference compound] | 0.2 |  | reduction of swelling (percent inhibition of edema volume vs vehicle) [2, 3]: 46%
5 | Budesonide dodecylcarbonate [Example 2] | 0.53 |  | reduction of swelling (percent inhibition of edema volume vs vehicle) [2, 3]: 88%
6 | Budesonide farnesolcarbonate [Example 17] |  | 86 | onset of action [2]: normal onset of action
7 | Budesonide heptylcarbonate [Example 14] |  |  | efficacy compared with the C6 carbonate ester [2, 3]: more efficacious
8 | Budesonide hexylcarbonate [Example 3] | 0.14 |  | 
9 | Budesonide phytolcarbonate [Example 16] |  | 69 | onset of action [2]: normal onset of action
